Measured values taken from the OligoGym collection.
HELM strings list units from the 5' end as sugar, base in round brackets, then linkage (d deoxyribose, r ribose, m 2'-O-methyl, p phosphodiester). Strings are as the collection lists them; they lack the last nucleoside at the 3' end of the tested compound. [moe] = 2'-O-(2-methoxyethyl) (MOE); [sp] = phosphorothioate linkage; [m5C] = 5-methylcytosine

Target: UBE3A-ATS
Experiment: mouse, dose not given
Conditions: ASO

| Substance | 3 h FOB score [score 0-7] |
| --- | --- |
| RNA1{[moe](T)[sp].[moe]([m5C])p.[moe](A)p.[moe](T)p.[moe]([m5C])p.[moe](T)p.d([m5C])[sp].d(G)[sp].d(G)[sp].d(G)[sp].d(T)[sp].d(A)[sp].d(T)[sp].d(A)[sp].d(T)[sp].d(A)[sp].[moe](A)p.[moe](A)[sp].[moe](T)}$$$$ (last 3' nucleoside missing) | 2 |
| RNA1{[moe](T)[sp].[moe]([m5C])p.[moe]([m5C])p.[moe]([m5C])p.[moe](A)p.d(T)[sp].d(T)[sp].d([m5C])[sp].d(A)[sp].d(G)[sp].d([m5C])[sp].d(A)[sp].d([m5C])[sp].d(T)[sp].d(T)[sp].[moe](A)p.[moe](G)p.[moe](G)[sp].[moe](T)}$$$$ (last 3' nucleoside missing) | 3 |
| RNA1{[moe](T)[sp].[moe](G)p.[moe](T)p.[moe]([m5C])p.[moe](G)p.d(A)[sp].d(G)[sp].d(A)[sp].d(A)[sp].d([m5C])[sp].d(T)[sp].d([m5C])[sp].d(A)[sp].d(A)[sp].d(A)[sp].[moe](A)p.[moe](G)p.[moe](G)[sp].[moe](T)}$$$$ (last 3' nucleoside missing) | 4.5 |
| RNA1{[moe](G)[sp].[moe](A)p.[moe](T)p.[moe](T)p.[moe]([m5C])p.d(A)[sp].d(A)[sp].d(T)[sp].d(A)[sp].d(G)[sp].d(T)[sp].d(G)[sp].d(T)[sp].d(A)[sp].d(G)[sp].[moe](G)p.[moe](T)p.[moe](G)[sp].[moe](A)}$$$$ (last 3' nucleoside missing) | 3.3 |
| RNA1{[moe](A)[sp].[moe]([m5C])p.[moe](T)p.[moe](T)p.[moe]([m5C])p.d(T)[sp].d([m5C])[sp].d(A)[sp].d(T)[sp].d(T)[sp].d([m5C])[sp].d(T)[sp].d([m5C])[sp].d(T)[sp].d([m5C])[sp].[moe]([m5C])p.[moe](A)p.[moe]([m5C])[sp].[moe]([m5C])}$$$$ (last 3' nucleoside missing) | 0 |
| RNA1{[moe](G)[sp].[moe]([m5C])p.[moe](A)p.[moe]([m5C])p.[moe](A)p.d([m5C])[sp].d([m5C])[sp].d(T)[sp].d(G)[sp].d(G)[sp].d(A)[sp].d(T)[sp].d(T)[sp].d(T)[sp].d([m5C])[sp].[moe](A)p.[moe]([m5C])p.[moe](T)[sp].[moe](A)}$$$$ (last 3' nucleoside missing) | 2 |
| RNA1{[moe](T)[sp].[moe](T)p.[moe](T)p.[moe](G)p.[moe](G)p.d([m5C])[sp].d(T)[sp].d(T)[sp].d(T)[sp].d(A)[sp].d(T)[sp].d(A)[sp].d([m5C])[sp].d(T)[sp].d(T)[sp].[moe](T)p.[moe](A)p.[moe]([m5C])[sp].[moe]([m5C])}$$$$ (last 3' nucleoside missing) | 0 |
| RNA1{[moe](G)[sp].[moe](T)p.[moe](G)p.[moe]([m5C])p.d(A)[sp].d(T)[sp].d(A)[sp].d([m5C])[sp].d([m5C])[sp].d([m5C])[sp].d(A)[sp].d(G)[sp].d(G)[sp].d(G)[sp].[moe](T)p.[moe](A)p.[moe](G)p.[moe](G)[sp].[moe](A)}$$$$ (last 3' nucleoside missing) | 2 |
| RNA1{[moe]([m5C])[sp].[moe](T)p.[moe](A)p.[moe](T)p.[moe]([m5C])p.d(T)[sp].d(G)[sp].d(T)[sp].d(A)[sp].d([m5C])[sp].d(A)[sp].d(A)[sp].d(A)[sp].d(A)[sp].d(T)[sp].[moe](G)p.[moe](G)p.[moe](A)[sp].[moe](A)}$$$$ (last 3' nucleoside missing) | 0 |
| RNA1{[moe](A)[sp].[moe](T)p.[moe](T)p.[moe](G)p.d(G)[sp].d(T)[sp].d([m5C])[sp].d(A)[sp].d(T)[sp].d([m5C])[sp].d(T)[sp].d([m5C])[sp].d(G)[sp].d(G)[sp].[moe](G)p.[moe](T)p.[moe](A)p.[moe](T)[sp].[moe](A)}$$$$ (last 3' nucleoside missing) | 4 |
| RNA1{[moe](G)[sp].[moe](T)p.[moe]([m5C])p.[moe](A)p.[moe](T)p.[moe]([m5C])[sp].d(T)[sp].d([m5C])[sp].d(G)[sp].d(G)[sp].d(G)[sp].d(T)[sp].d(A)[sp].d(T)[sp].[moe](A)p.[moe](T)[sp].[moe](A)}$$$$ (last 3' nucleoside missing) | 4.7 |
| RNA1{[moe](G)[sp].[moe](A)p.[moe](T)p.[moe]([m5C])p.[moe](A)[sp].d([m5C])[sp].d(A)[sp].d(T)[sp].d(T)[sp].d(A)[sp].d([m5C])[sp].d([m5C])[sp].d([m5C])[sp].[moe](A)p.[moe](T)p.[moe]([m5C])[sp].[moe]([m5C])}$$$$ (last 3' nucleoside missing) | 2 |
| RNA1{[moe](G)[sp].[moe]([m5C])p.[moe](T)p.[moe](T)p.[moe](A)p.d(T)[sp].d(G)[sp].d(T)[sp].d(A)[sp].d(G)[sp].d([m5C])[sp].d(T)[sp].d([m5C])[sp].d(A)[sp].d(G)[sp].[moe]([m5C])p.[moe](T)p.[moe]([m5C])[sp].[moe](A)}$$$$ (last 3' nucleoside missing) | 1 |
| RNA1{[moe](G)[sp].[moe](T)p.[moe](G)p.[moe](G)p.[moe](T)p.d([m5C])[sp].d(A)[sp].d(G)[sp].d(A)[sp].d(T)[sp].d(T)[sp].d([m5C])[sp].d([m5C])[sp].d(T)[sp].d(A)[sp].[moe](A)p.[moe](A)p.[moe](T)[sp].[moe](A)}$$$$ (last 3' nucleoside missing) | 0 |
| RNA1{[moe](A)[sp].[moe](A)p.[moe](G)p.[moe](T)p.[moe](G)p.d(G)[sp].d(A)[sp].d(T)[sp].d([m5C])[sp].d(T)[sp].d([m5C])[sp].d(T)[sp].d(T)[sp].d(G)[sp].d(G)[sp].[moe](G)p.[moe]([m5C])p.[moe](A)[sp].[moe](G)}$$$$ (last 3' nucleoside missing) | 4.8 |
| RNA1{[moe](T)[sp].[moe](T)p.[moe]([m5C])p.[moe](A)p.[moe]([m5C])p.[moe]([m5C])p.d(A)[sp].d(T)[sp].d(T)[sp].d(T)[sp].d(T)[sp].d(G)[sp].d(A)[sp].d([m5C])[sp].d([m5C])[sp].d(T)[sp].[moe](T)p.[moe]([m5C])[sp].[moe](T)}$$$$ (last 3' nucleoside missing) | 0 |
| RNA1{[moe](A)[sp].[moe](A)p.[moe](A)p.[moe](A)p.[moe](T)p.d([m5C])[sp].d([m5C])[sp].d(A)[sp].d(T)[sp].d(T)[sp].d(T)[sp].d(G)[sp].d(T)[sp].d([m5C])[sp].d([m5C])[sp].[moe](A)p.[moe](G)p.[moe](T)[sp].[moe]([m5C])}$$$$ (last 3' nucleoside missing) | 2.3 |
| RNA1{[moe](T)[sp].[moe](G)p.[moe](G)p.[moe](T)p.[moe]([m5C])p.[moe](A)[sp].d(T)[sp].d([m5C])[sp].d(T)[sp].d([m5C])[sp].d(G)[sp].d(G)[sp].d(G)[sp].d(T)[sp].[moe](A)p.[moe](T)[sp].[moe](A)}$$$$ (last 3' nucleoside missing) | 4.7 |
| RNA1{[moe]([m5C])[sp].[moe]([m5C])p.[moe](A)p.[moe](G)p.[moe]([m5C])p.d([m5C])[sp].d(A)[sp].d(G)[sp].d(G)[sp].d(T)[sp].d(G)[sp].d(T)[sp].d([m5C])[sp].d(T)[sp].d(T)[sp].[moe](A)p.[moe](T)p.[moe](A)[sp].[moe](T)}$$$$ (last 3' nucleoside missing) | 3.8 |
| RNA1{[moe]([m5C])[sp].[moe](T)p.[moe](G)p.[moe](T)p.[moe](A)p.d(T)[sp].d(A)[sp].d(G)[sp].d(T)[sp].d(T)[sp].d(T)[sp].d(A)[sp].d([m5C])[sp].d([m5C])[sp].d([m5C])[sp].[moe](A)p.[moe](G)p.[moe](G)[sp].[moe]([m5C])}$$$$ (last 3' nucleoside missing) | 0 |
| RNA1{[moe](A)[sp].[moe](G)p.[moe]([m5C])p.[moe]([m5C])p.[moe](A)p.d(G)[sp].d(G)[sp].d(T)[sp].d(G)[sp].d(T)[sp].d([m5C])[sp].d(T)[sp].d(T)[sp].d(A)[sp].d(T)[sp].[moe](A)p.[moe](T)p.[moe]([m5C])[sp].[moe](T)}$$$$ (last 3' nucleoside missing) | 2.3 |
| RNA1{[moe](T)[sp].[moe](G)p.[moe](T)p.[moe](G)p.d(T)[sp].d(G)[sp].d(T)[sp].d(T)[sp].d(T)[sp].d(T)[sp].d(T)[sp].d([m5C])[sp].d([m5C])[sp].d(A)[sp].[moe](T)p.[moe](T)p.[moe](T)p.[moe](T)[sp].[moe](T)}$$$$ (last 3' nucleoside missing) | 1 |
| RNA1{[moe](G)[sp].[moe]([m5C])p.[moe](T)p.[moe](T)p.d([m5C])[sp].d(A)[sp].d([m5C])[sp].d([m5C])[sp].d(A)[sp].d(T)[sp].d(T)[sp].d(T)[sp].d(T)[sp].d(G)[sp].[moe](A)p.[moe]([m5C])p.[moe]([m5C])p.[moe](T)[sp].[moe](T)}$$$$ (last 3' nucleoside missing) | 0 |
| RNA1{[moe](T)[sp].[moe]([m5C])p.[moe](A)p.[moe]([m5C])p.[moe]([m5C])p.d(A)[sp].d(T)[sp].d(T)[sp].d(T)[sp].d(T)[sp].d(G)[sp].d(A)[sp].d([m5C])[sp].d([m5C])[sp].d(T)[sp].[moe](T)p.[moe]([m5C])p.[moe](T)[sp].[moe](T)}$$$$ (last 3' nucleoside missing) | 1 |
| RNA1{[moe](G)[sp].[moe](A)p.[moe]([m5C])p.[moe](T)p.[moe](A)p.d([m5C])[sp].d(T)[sp].d(T)[sp].d([m5C])[sp].d(A)[sp].d(A)[sp].d([m5C])[sp].d([m5C])[sp].d(T)[sp].d(G)[sp].[moe](A)p.[moe](T)p.[moe](A)[sp].[moe]([m5C])}$$$$ (last 3' nucleoside missing) | 2 |
| RNA1{[moe](G)[sp].[moe](T)p.[moe](A)p.[moe]([m5C])p.[moe](T)p.d([m5C])[sp].d(A)[sp].d(T)[sp].d([m5C])[sp].d(A)[sp].d(T)[sp].d(G)[sp].d(A)[sp].d(T)[sp].d([m5C])[sp].[moe](T)p.[moe](T)p.[moe](G)[sp].[moe](G)}$$$$ (last 3' nucleoside missing) | 2 |
